Source: PMC6272306, “LC-MS/MS Determination and Pharmacokinetic Study of Pedunculoside in Rat Plasma after Oral Administration of Pedunculoside and Ilex rotunda Extract” (Molecules, 2015)
Read-outs that look alike come from different tables or passages of the source.

Tests used:
[1] = Pharmacokinetic study of PDC in rat plasma after oral administration of pure PDC or IRE (LC-MS/MS); format: in vivo, Sprague-Dawley rats; conditions: male, Sprague-Dawley, PDC in rat plasma, n = 6, mean ± SD; for CL/F: read-out: CLz/F (converted); for MRT last: read-out: MRT0–t; for MRT inf: read-out: MRT0–∞; for Vd/F: read-out: Vz/F; for half-life: read-out: t1/2z (converted)
Procedure: The analytical procedures described in Section 3.3 were performed to quantify PDC in rat plasma samples obtained from 24 male Sprague-Dawley rats. Out of these rats, 12 were orally administered with pure PDC, whereas 12 were orally administered with IRE. Establishing an intravenous dose group might provide the bioavailability of PDC, however, the present experiment aimed to compare the pharmacokinetic differences of PDC between monomer and IRE groups after oral administration. A fully validated LC-MS/MS method was developed and successfully applied to the pharmacokinetic behavior of PDC in rats after oral administration of the pure PDC and IRE, which were given at the same equivalent doses (42 and 84 mg/kg PDC). The mean plasma concentration-time profiles of PDC and the herbal extract after oral administration at different doses are illustrated in Figure 3, and the estimated pharmacokinetic parameters are presented in Table 4. A simple and rapid protein precipitation method was used for the preparation of all the plasma samples (calibration standards and QC samples, and real plasma samples post-dose). Plasma sample aliquots (75 µL) were added with IS solution (50 µL, 200 ng/mL) and methanol (500 µL) in tubes, then vortex-mixed for 1 min, and centrifuged at 14,000× g for 10 min. […] The dried residue was reconstituted in 100 µL of methanol-H2O (70:30, v/v) and centrifuged at 14,000× g for 5 min before analysis, and an aliquot of 5 µL was injected into LC-MS/MS systems for analysis. All experimental procedures and protocols were approved by the Animal Care and Use Committee of Jilin University (Changchun, China). All the rats were fasted for 12 h before the experiment, and were randomly divided into four groups (n = 6 per group). Group I and II were intragastrically administrated an oral dose of 42 and 84 mg/kg pure PDC, respectively. Group III and IV were intragastrically administrated an oral dose of 0.16 and 0.32 g/kg IRE, which was equivalent to 42 and 84 mg/kg PDC, respectively. Both pure PDC and IRE powder was suspended in 0.5% carboxymethyl cellulose sodium (CMC-Na) solution just before use. Blood samples (0.3 mL) were collected from the orbital sinus venous plexus at 0, 0.083, 0.25, 0.5, 0.75, 1, 1.5, 2, 3, 4, 6, 8, and 12 h after gavage dosing. After centrifuging at 5000× g for 10 min, the plasma samples were obtained and frozen at −20 °C until analysis. The pharmacokinetic parameters including Cmax, Tmax, t1/2z, AUC0–t, AUC0–∞, CLz/F, and Vz/F were calculated by non-compartmental method using the DAS 2.0 pharmacokinetics program (Chinese Pharmacology Society, Beijing, China). An independent-sample t-test was performed twice to evaluate the differences of pharmacokinetic parameters between the two groups.

[2] = Stability of PDC in rat plasma QC samples under various storage conditions; format: in vitro ADME; conditions: n = 6
Procedure: The results were compared with those obtained with freshly prepared QC samples. It could be seen from Table 3 that the results are well within the acceptance limits. Stability of PDC in plasma was tested by the analysis of six replicates of QC samples […] exposed to various storage conditions. To assess the short-term stability study, QC samples were kept at 25 °C for at least 4 h and samples were processed at different time points and were determined and compared with the freshly prepared QC samples. For the long-term stability, QC samples were determined after storage of the plasma samples at −20 °C for 2 months. For freeze-thaw stability, QC samples were subjected to three freeze/thaw cycles (room temperature to −20 °C). For post-preparation stability, the processed QC samples stored in the autosampler trials for 12 h at 4 °C, were analyzed and compared with the freshly prepared QC samples.

[3] = system: hyperlipidemic albino rats; design: method as in doi:10.1076/phbi.37.1.37.6314; conditions: cited from earlier work
[4] = 42 mg/kg PDC (IRE dosage equivalent to PDC dosage)
[5] = 84 mg/kg PDC (IRE dosage equivalent to PDC dosage)
[6] = processed rat plasma samples in autosampler, Post-preparation stability (4 °C for 12 h), nominal 0.60 ng/mL (LLOQ)
[7] = processed rat plasma samples in autosampler, Post-preparation stability (4 °C for 12 h), nominal 1.50 ng/mL (QC-low)
[8] = processed rat plasma samples in autosampler, Post-preparation stability (4 °C for 12 h), nominal 15.0 ng/mL (QC-medium)
[9] = processed rat plasma samples in autosampler, Post-preparation stability (4 °C for 12 h), nominal 180 ng/mL (QC-high)
[10] = rat plasma, Long-term stability (−20 °C for 2 months), nominal 0.60 ng/mL (LLOQ)
[11] = rat plasma, Long-term stability (−20 °C for 2 months), nominal 1.50 ng/mL (QC-low)
[12] = rat plasma, Long-term stability (−20 °C for 2 months), nominal 15.0 ng/mL (QC-medium)
[13] = rat plasma, Long-term stability (−20 °C for 2 months), nominal 180 ng/mL (QC-high)
[14] = rat plasma, Short-term (25 °C for 4 h), nominal 0.60 ng/mL (LLOQ)
[15] = rat plasma, Short-term (25 °C for 4 h), nominal 1.50 ng/mL (QC-low)
[16] = rat plasma, Short-term (25 °C for 4 h), nominal 15.0 ng/mL (QC-medium)
[17] = rat plasma, Short-term (25 °C for 4 h), nominal 180 ng/mL (QC-high)
[18] = rat plasma, Three freeze/thaw cycles (room temperature to −20 °C), nominal 0.60 ng/mL (LLOQ)
[19] = rat plasma, Three freeze/thaw cycles (room temperature to −20 °C), nominal 1.50 ng/mL (QC-low)
[20] = rat plasma, Three freeze/thaw cycles (room temperature to −20 °C), nominal 15.0 ng/mL (QC-medium)
[21] = rat plasma, Three freeze/thaw cycles (room temperature to −20 °C), nominal 180 ng/mL (QC-high)

AUC(0-inf) [1, 4]: 379 ± 84.8 ng·h/mL | AUC(0-t) [1, 4]: 374 ± 82.9 ng·h/mL | Cmax [1, 4]: 95.2 ± 7.93 ng/mL | Tmax [1, 4]: 1.6 ± 0.42 h | CL/F [1, 4]: 1930 mL/min/kg | MRT last [1, 4]: 3.17 ± 0.45 h | MRT inf [1, 4]: 3.33 ± 0.48 h | Vd/F [1, 4]: 287 ± 63.5 L/kg | half-life [1, 4]: 1.73 ± 0.11 h | AUC(0-inf) [1, 5]: 665 ± 151 ng·h/mL | AUC(0-t) [1, 5]: 661 ± 149 ng·h/mL | Cmax [1, 5]: 174 ± 12.9 ng/mL | Tmax [1, 5]: 1.8 ± 0.91 h | CL/F [1, 5]: 2110 mL/min/kg | MRT last [1, 5]: 3.08 ± 0.42 h | MRT inf [1, 5]: 3.15 ± 0.44 h | Vd/F [1, 5]: 273 ± 45.6 L/kg | half-life [1, 5]: 1.5 ± 0.08 h | Determined Conc. (Mean ± SD) [2, 6]: 0.596 ± 0.011 ng/mL | RE [2, 6]: −0.60% | Determined Conc. (Mean ± SD) [2, 7]: 1.65 ± 0.10 ng/mL | RE [2, 7]: 10.04% | Determined Conc. (Mean ± SD) [2, 8]: 13.81 ± 0.63 ng/mL | RE [2, 8]: −7.91% | Determined Conc. (Mean ± SD) [2, 9]: 183.17 ± 2.59 ng/mL | RE [2, 9]: 1.76% | Determined Conc. (Mean ± SD) [2, 10]: 0.573 ± 0.008 ng/mL | RE [2, 10]: −4.56% | Determined Conc. (Mean ± SD) [2, 11]: 1.52 ± 0.16 ng/mL | RE [2, 11]: 1.11% | Determined Conc. (Mean ± SD) [2, 12]: 15.96 ± 0.68 ng/mL | RE [2, 12]: 6.39% | Determined Conc. (Mean ± SD) [2, 13]: 160.70 ± 7.58 ng/mL | RE [2, 13]: −10.72% | Determined Conc. (Mean ± SD) [2, 14]: 0.673 ± 0.014 ng/mL | RE [2, 14]: 12.24% | Determined Conc. (Mean ± SD) [2, 15]: 1.44 ± 0.09 ng/mL | RE [2, 15]: −3.77% | Determined Conc. (Mean ± SD) [2, 16]: 14.88 ± 1.03 ng/mL | RE [2, 16]: −0.77% | Determined Conc. (Mean ± SD) [2, 17]: 192.71 ± 11.42 ng/mL | RE [2, 17]: 7.06% | Determined Conc. (Mean ± SD) [2, 18]: 0.570 ± 0.016 ng/mL | RE [2, 18]: −5.00% | Determined Conc. (Mean ± SD) [2, 19]: 1.38 ± 0.162 ng/mL | RE [2, 19]: −7.82% | Determined Conc. (Mean ± SD) [2, 20]: 16.32 ± 1.37 ng/mL | RE [2, 20]: 8.81% | Determined Conc. (Mean ± SD) [2, 21]: 162.85 ± 15.57 ng/mL | RE [2, 21]: −9.53%
SMILES: C[C@@H]1CC[C@]2(C(=O)O[C@@H]3O[C@H](CO)[C@@H](O)[C@H](O)[C@H]3O)CC[C@]3(C)C(=CC[C@@H]4[C@@]5(C)CC[C@H](O)[C@@](C)(CO)[C@@H]5CC[C@]43C)[C@@H]2[C@]1(C)O [PDC, Pedunculoside]
hypolipidemic activity [3]: significant hypolipidemic activity
